Measured values taken from patent US9199862B2, “Method for adsorbing fluorocarboxylic acid having ether bond and method for collecting same” (DAIKIN INDUSTRIES, LTD., priority 2009, dated 2015).

How the values were obtained:
[1] = solubility in water; format: physicochemical; settings: normal temperature
Description: A fluorocarboxylic acid having an ether bond, for example, 2,3,3,3-tetrafluoro-2-[1,1,2,3,3,3-hexafluoro-2-(trifluoromethoxy)propoxy]-propanoic acid has a solubility in water of about 10% at normal temperature, which is about 50 times of the solubility of perfluorooctanoic acid (PFOA) in water. Therefore, the adsorption rate of general active carbon, for example, general-purpose active carbon for waste water which was conventionally used is 5% or less at normal temperature and pH 7.

[2] = normal temperature; cited from earlier work
[3] = adsorption and desorption by heating the active carbon in a dryer at 99° C. (Example 3); format: physicochemical; settings: Tables 3 and 4, 99° C. for 48 hours
Description: An active carbon (Specific surface area: 500-2,000 m^2/g) (0.1 g), to which 2,3,3,3-tetrafluoro-2-[1,1,2,3,3,3-hexafluoro-2-(trifluoromethoxy)propoxy]-propanoic acid was adsorbed until reaching the breakthrough point, was charged into a dryer and left at a temperature of 99° C. for 48 hours. The desorption amount was taken as the same as an adsorption amount in adsorption again after the desorption.

## O=C(O)C(F)(OC(F)(F)C(F)(OC(F)(F)F)C(F)(F)F)C(F)(F)F (stereo not drawn) [2,3,3,3-tetrafluoro-2-[1,1,2,3,3,3-hexafluoro-2-(trifluoromethoxy)propoxy]-propanoic acid]
[1]
  solubility in water relative to perfluorooctanoic acid (PFOA): about 50 times
[2]
  solubility in water: about 10%
[3]
  desorption compared with perfluorohexanoic acid: higher desorption
